This is an account of results in ChEMBL document CHEMBL3632501, “New SIRT1 activator from alkaline hydrolysate of total saponins in the stems-leaves of Panax ginseng” (Bioorg Med Chem Lett, 2015).

As usually defined, the IC50 is the point on the concentration scale where inhibition reaches its midpoint.

One assay relates to HepG2. The assay is described as follows: Cytotoxicity against human HepG2 cells after 48 hrs by MTT assay. Type of assay: functional, cell-based. Conditions: for IC50: HepG2, 48 h. (Formazan colour is commonly taken as a measure of viable cells.)
The next assay has as its system HL-60. Put plainly: Cytotoxicity against human HL60 cells after 48 hrs by MTT assay. Type of assay: functional, cell-based. As to conditions: for IC50: HL-60, 48 h.
Assay [1] has as its target T1, NAD-dependent protein deacetylase sirtuin-1 (Homo sapiens) (UniProt Q96EB6).
T1 sequence (whole entry): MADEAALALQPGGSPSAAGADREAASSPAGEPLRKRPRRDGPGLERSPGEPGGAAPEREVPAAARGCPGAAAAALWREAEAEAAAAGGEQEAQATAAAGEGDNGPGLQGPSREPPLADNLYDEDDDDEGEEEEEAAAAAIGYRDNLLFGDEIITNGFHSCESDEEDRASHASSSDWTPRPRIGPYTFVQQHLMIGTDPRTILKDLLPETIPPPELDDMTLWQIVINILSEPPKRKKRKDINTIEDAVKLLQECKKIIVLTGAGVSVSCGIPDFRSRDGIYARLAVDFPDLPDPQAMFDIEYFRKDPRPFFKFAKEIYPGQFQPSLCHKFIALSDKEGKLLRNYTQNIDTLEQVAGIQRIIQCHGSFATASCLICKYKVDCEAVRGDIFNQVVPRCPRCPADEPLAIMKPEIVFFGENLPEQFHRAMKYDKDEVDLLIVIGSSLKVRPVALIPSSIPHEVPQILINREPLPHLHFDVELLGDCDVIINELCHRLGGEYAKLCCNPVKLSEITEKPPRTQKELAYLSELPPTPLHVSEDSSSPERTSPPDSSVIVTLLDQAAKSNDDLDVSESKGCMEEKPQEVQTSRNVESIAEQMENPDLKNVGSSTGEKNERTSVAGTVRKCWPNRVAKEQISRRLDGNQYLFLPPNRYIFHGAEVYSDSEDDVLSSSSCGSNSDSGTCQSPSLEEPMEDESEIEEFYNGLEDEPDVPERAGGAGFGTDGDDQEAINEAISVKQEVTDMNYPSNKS
The assay is described as follows: Activation of SIRT1 (unknown origin) after 45 mins by NAD/NADH enzyme-based fluorometric assay.

Each structure is given as a SMILES string. Activity calls are given as the source filed them. The rule behind the calls is not given here. Bounds are passed on as bounds.

`CCC1=C[C@@H]2CN(C1)Cc1c([nH]c3ccccc13)[C@@](C(=O)OC)(c1cc3c(cc1OC)N(C)[C@H]1[C@@](O)(C(=O)OC)[C@H](OC(C)=O)[C@]4(CC)C=CCN5CC[C@]31[C@@H]54)C2` [VINORELBINE]: the IC50 with HepG2 came out at 23.1 µM; with HL-60 it was 11.5 µM.

As for `CC(=O)OC[C@H]1O[C@@H](O[C@H]2C[C@]3(C)[C@H](C[C@@H](O)[C@@H]4[C@@H]([C@@](C)(O)CCC=C(C)C)CC[C@]43C)[C@@]3(C)CC[C@H](O)C(C)(C)[C@H]23)[C@H](O)[C@@H](O)[C@@H]1O`, the IC50 with HepG2 was 169 µM; in the assay with HL-60, 128 µM. Besides, the result in assay [1] was Active.

Turning to `CC(C)=CCC[C@@](C)(O)[C@H]1CC[C@]2(C)[C@@H]1[C@H](O)C[C@@H]1[C@@]3(C)CC[C@H](O)C(C)(C)[C@@H]3CC[C@]12C`, the IC50 in the assay with HepG2 is 69.1 µM; in the assay on HL-60 it was 23.4 µM. Also, the outcome in assay [1] was Active.

Regarding `CC(C)=CCC[C@](C)(O)[C@H]1CC[C@]2(C)[C@@H]1[C@H](O)C[C@@H]1[C@@]3(C)CC[C@H](O)C(C)(C)[C@@H]3[C@@H](O[C@@H]3O[C@H](CO)[C@@H](O)[C@H](O)[C@H]3O)C[C@]12C` [GINSENOSIDE RH1], the IC50 in the assay on HepG2 and with HL-60 was greater than 200 µM in each case. Moreover, in assay [1], the outcome was Active.

For `C=C(CCC=C(C)C)[C@H]1CC[C@]2(C)[C@@H]1[C@H](O)C[C@@H]1[C@@]3(C)CC[C@H](O[C@@H]4O[C@H](CO)[C@@H](O)[C@H](O)[C@H]4O[C@@H]4O[C@H](CO)[C@@H](O)[C@H](O)[C@H]4O)C(C)(C)[C@@H]3CC[C@]12C` [GISENOSIDE RK1], the IC50 in the assay with HepG2 amounted to 79.8 µM; in the assay with HL-60 it was 58.1 µM. Further, in assay [1], the outcome was Active.

In the case of `C=C(CCC=C(C)C)[C@H]1CC[C@]2(C)[C@@H]1[C@H](O)C[C@@H]1[C@@]3(C)CC[C@H](O)C(C)(C)[C@@H]3[C@@H](O)C[C@]12C`, the concentration for half-maximal inhibition (IC50) in the assay on HepG2 was found to be 42.1 µM; with HL-60 it was 18.3 µM. For the same molecule, the result in assay [1] was Active.

For the molecule `CC(C)=CC/C=C(\C)[C@H]1CC[C@]2(C)[C@@H]1[C@H](O)C[C@@H]1[C@@]3(C)CC[C@H](O[C@@H]4O[C@H](CO)[C@@H](O)[C@H](O)[C@H]4O)C(C)(C)[C@@H]3[C@@H](O)C[C@]12C`, the half-maximal inhibitory concentration (IC50) was 86.5 µM in the assay with HepG2 and 50.2 µM in the assay on HL-60. In addition, the result in assay [1] was Active.

With `CC(C)=CC/C=C(\C)[C@H]1CC[C@]2(C)[C@@H]1[C@H](O)C[C@@H]1[C@@]3(C)CC[C@H](O)C(C)(C)[C@@H]3[C@@H](O[C@@H]3O[C@H](CO)[C@@H](O)[C@H](O)[C@H]3O[C@@H]3O[C@@H](C)[C@H](O)[C@@H](O)[C@H]3O)C[C@]12C`, the results for the IC50 with HepG2 and in the assay with HL-60 were 152 µM and 82.8 µM, respectively. In assay [1], the result was inactive.

For the molecule `CC(C)=CC/C=C(\C)[C@H]1CC[C@]2(C)[C@@H]1[C@H](O)C[C@@H]1[C@@]3(C)CC[C@H](O)C(C)(C)[C@@H]3[C@@H](O)C[C@]12C`, in the assay on HepG2, the Activity entry is “Dose-dependent effect” and it took 24.3 µM to reach half-maximal inhibition (IC50). For the same molecule, in the assay with HL-60, the Activity result was “Dose-dependent effect” and the midpoint of inhibition, the IC50, lay at 10.3 µM. In assay [1], the result was Active.

Turning to `C=C(C)[C@@H](O)C/C=C(\C)[C@H]1CC[C@]2(C)[C@@H]1[C@H](O)C[C@@H]1[C@@]3(C)CC[C@H](O[C@@H]4O[C@H](CO)[C@@H](O)[C@H](O)[C@H]4O)C(C)(C)[C@@H]3CC[C@]12C`, the IC50 with HepG2 came to 44.1 µM; in the assay on HL-60, 24.8 µM. Further, the outcome in assay [1] was Active.

On to `CC(C)=CCC[C@@](C)(O)[C@H]1CC[C@]2(C)[C@@H]1[C@H](O)C[C@@H]1[C@@]3(C)CC[C@H](O)C(C)(C)[C@@H]3[C@@H](O)C[C@]12C`, for which the IC50 is 58.3 µM in the assay on HepG2 and 28.7 µM with HL-60. Besides, the outcome in assay [1] was Active.

Turning to `CC(C)=CCC[C@](C)(O)[C@H]1CC[C@]2(C)[C@@H]1[C@H](O)C[C@@H]1[C@@]3(C)CC[C@H](O)C(C)(C)[C@@H]3[C@@H](O)C[C@]12C`, the half-inhibitory concentration (IC50) in the assay on HepG2 turned out to be 43.4 µM; in the assay with HL-60, 22.8 µM. Moreover, the outcome in assay [1] was Active.

Regarding `CC(C)=CCC[C@](C)(O)[C@H]1CC[C@]2(C)[C@@H]1[C@H](O)C[C@@H]1[C@@]3(C)CC[C@H](O)C(C)(C)[C@@H]3CC[C@]12C`, the IC50 is 45.7 µM in the assay on HepG2 and 15.5 µM in the assay on HL-60. Moreover, in assay [1], the outcome was Active.

Turning to `CC(C)=CCC[C@@](C)(O)[C@H]1CC[C@]2(C)[C@@H]1[C@H](O)C[C@@H]1[C@@]3(C)CC[C@H](O)C(C)(C)[C@@H]3[C@@H](O[C@@H]3O[C@H](CO)[C@@H](O)[C@H](O)[C@H]3O)C[C@]12C`, the IC50 with HepG2 and in the assay with HL-60 was greater than 200 µM throughout. Further, in assay [1], the outcome was inactive.
